Reference: patent publication US20090137615A1, “INDAZOLYLAMINO QUINAZOLINE DERIVATIVES AS ANTITUMOUR AGENTS” (priority 2005, published 2009)

Experiments:
EGFR tyrosine kinase = molecular target: T1, EGFR tyrosine kinase (Homo sapiens, UniProt P00533); assay: Protein tyrosine kinase phosphorylation assay, Test (a), EGFR; format: biochemical; conditions: recombinant intracellular fragment, ATP at Km; read-out: IC50 Test (a): Inhibition of EGFR tyrosine kinase protein phosphorylation
T1 construct: Recombinant intracellular fragments of EGFR, erbB2 and erbB4; made in house; host or cells: baculovirus/Sf21 insect cells (cleared lysate used)
T1 sequence (P00533 669-1210 limits assumed): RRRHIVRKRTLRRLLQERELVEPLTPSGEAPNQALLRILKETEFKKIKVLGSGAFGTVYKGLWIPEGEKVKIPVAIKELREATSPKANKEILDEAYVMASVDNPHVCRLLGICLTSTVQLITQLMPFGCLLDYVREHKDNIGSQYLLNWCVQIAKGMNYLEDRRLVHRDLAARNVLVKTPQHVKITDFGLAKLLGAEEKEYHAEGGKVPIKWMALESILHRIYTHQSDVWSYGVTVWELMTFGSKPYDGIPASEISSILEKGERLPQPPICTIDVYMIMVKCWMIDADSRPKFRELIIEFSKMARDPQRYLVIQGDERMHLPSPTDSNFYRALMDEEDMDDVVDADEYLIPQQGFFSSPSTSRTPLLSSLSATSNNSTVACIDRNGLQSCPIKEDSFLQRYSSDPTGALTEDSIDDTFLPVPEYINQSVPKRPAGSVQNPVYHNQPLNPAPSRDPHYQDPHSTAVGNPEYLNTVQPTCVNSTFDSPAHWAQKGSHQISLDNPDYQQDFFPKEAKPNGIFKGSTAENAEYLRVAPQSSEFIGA
Description: (§1) This test measures the ability of a test compound to inhibit the phosphorylation of a tyrosine containing polypeptide substrate by EGFR, erbB2 and erbB4 tyrosine kinase enzyme.
(§2) Recombinant intracellular fragments of EGFR, erbB2 and erbB4 (accession numbers X00588, X03363 and L07868 respectively) were cloned and expressed in the baculovirus/Sf21 system. […]
(§3) Constitutive kinase activity of these recombinant proteins was determined by their ability to phosphorylate a synthetic peptide (made up of a random co-polymer of Glutamic Acid, Alanine and Tyrosine in the ratio of 6:3:1). […]
(§4) The immobilised phospho-peptide product of the reaction was detected by immunological methods. […] After further washing, HRP activity in each well of the plate was measured colorimetrically using 22′-Azino-di-[3-ethylbenzthiazoline sulfonate (6)]diammonium salt crystals (ABTS™ from Roche) as a substrate.
(§5) Quantification of colour development and thus enzyme activity was achieved by the measurement of absorbance at 405 nm on a Molecular Devices ThermoMax microplate reader. Kinase inhibition for a given compound was expressed as an IC50 value. […] The range of phosphorylation was calculated from the positive (vehicle plus ATP) and negative (vehicle minus ATP) control values.

erbB2 tyrosine kinase = molecular target: T2, erbB2 tyrosine kinase (Homo sapiens, UniProt P04626); assay: Protein tyrosine kinase phosphorylation assay, Test (a), erbB2; format: biochemical; conditions: recombinant intracellular fragment, ATP at Km; read-out: IC50 Test (a): Inhibition of erbB2 tyrosine kinase protein phosphorylation
T2 construct: Recombinant intracellular fragments of EGFR, erbB2 and erbB4; made in house; host or cells: baculovirus/Sf21 insect cells (cleared lysate used)
T2 sequence (P04626 676-1255 limits assumed): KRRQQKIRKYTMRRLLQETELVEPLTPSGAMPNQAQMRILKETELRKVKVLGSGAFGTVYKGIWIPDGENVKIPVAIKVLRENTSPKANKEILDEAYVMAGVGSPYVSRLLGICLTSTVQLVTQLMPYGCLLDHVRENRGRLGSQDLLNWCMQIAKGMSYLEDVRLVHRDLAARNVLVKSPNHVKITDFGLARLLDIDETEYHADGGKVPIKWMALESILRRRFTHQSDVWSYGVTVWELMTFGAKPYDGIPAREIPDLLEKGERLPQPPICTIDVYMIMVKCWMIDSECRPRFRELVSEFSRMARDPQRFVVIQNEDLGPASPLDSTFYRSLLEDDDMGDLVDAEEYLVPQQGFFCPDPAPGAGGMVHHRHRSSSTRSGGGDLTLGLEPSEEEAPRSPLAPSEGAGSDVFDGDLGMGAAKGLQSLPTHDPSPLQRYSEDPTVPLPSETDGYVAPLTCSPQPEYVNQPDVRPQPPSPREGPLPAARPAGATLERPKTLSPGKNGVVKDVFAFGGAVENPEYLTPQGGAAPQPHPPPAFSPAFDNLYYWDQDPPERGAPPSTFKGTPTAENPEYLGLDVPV
Description: as §1, §2, §3, §4, §5

erbB2 = molecular target: T3, erbB2 (Homo sapiens, UniProt P04626); assay: Clone 24 phospho-erbB2 cell assay, Test (c); format: cell-based; conditions: MCF7 derived cell line (Clone 24) overexpressing erbB2, 4 hours; read-out: IC50 Test (c): Inhibition of erbB2 tyrosine kinase protein phosphorylation
T3 construct: a cell line that overexpresses full length wild type erbB2 protein; expressed in transfected cells; host or cells: MCF7 (breast carcinoma) derived 'Clone 24' cells
T3 sequence (P04626 23-1255): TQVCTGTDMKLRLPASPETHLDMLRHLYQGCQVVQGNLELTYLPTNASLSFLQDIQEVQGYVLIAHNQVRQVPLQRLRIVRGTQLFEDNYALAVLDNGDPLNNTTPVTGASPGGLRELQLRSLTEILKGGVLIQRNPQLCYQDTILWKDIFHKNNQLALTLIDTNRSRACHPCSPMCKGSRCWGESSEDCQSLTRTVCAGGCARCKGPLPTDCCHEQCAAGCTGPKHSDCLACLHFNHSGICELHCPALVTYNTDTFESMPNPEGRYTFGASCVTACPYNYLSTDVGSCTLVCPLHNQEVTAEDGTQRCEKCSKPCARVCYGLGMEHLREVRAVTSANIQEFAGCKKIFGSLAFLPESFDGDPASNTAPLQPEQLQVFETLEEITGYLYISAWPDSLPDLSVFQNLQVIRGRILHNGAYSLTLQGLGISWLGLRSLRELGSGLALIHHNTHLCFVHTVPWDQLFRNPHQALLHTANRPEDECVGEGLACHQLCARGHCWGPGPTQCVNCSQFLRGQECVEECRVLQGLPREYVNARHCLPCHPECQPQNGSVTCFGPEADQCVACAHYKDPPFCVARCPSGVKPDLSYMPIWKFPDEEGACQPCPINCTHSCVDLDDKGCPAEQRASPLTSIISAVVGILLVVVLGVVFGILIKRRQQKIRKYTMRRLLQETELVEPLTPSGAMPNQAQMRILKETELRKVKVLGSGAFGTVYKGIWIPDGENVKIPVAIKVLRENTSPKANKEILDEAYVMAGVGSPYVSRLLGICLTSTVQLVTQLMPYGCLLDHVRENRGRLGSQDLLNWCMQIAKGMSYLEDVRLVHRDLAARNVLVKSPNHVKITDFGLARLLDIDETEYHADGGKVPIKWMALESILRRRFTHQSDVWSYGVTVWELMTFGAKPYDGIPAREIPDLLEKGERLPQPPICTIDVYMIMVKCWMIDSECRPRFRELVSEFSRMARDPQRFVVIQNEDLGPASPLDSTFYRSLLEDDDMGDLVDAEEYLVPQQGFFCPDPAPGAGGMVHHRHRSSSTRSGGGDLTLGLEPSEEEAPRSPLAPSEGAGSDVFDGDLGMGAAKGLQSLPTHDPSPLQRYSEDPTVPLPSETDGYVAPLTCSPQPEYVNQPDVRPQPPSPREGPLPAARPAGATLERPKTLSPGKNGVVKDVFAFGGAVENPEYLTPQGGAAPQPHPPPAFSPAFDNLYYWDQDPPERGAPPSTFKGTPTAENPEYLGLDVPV
Description: This immunofluorescence end point assay measures the ability of a test compound to inhibit the phosphorylation of erbB2 in a MCF7 (breast carcinoma) derived cell line which was generated by transfecting MCF7 cells with the full length erbB2 gene using standard methods to give a cell line that overexpresses full length wild type erbB2 protein (hereinafter ‘Clone 24’ cells).
Clone 24 cells were cultured in Growth Medium (phenol red free Dulbecco's modified Eagle's medium (DMEM) containing 10% foetal bovine serum, 2 mM glutamine and 1.2 mg/ml G418) in a 7.5% CO2 air incubator at 37° C. […] Cell density was measured using a haemocytometer and viability was calculated using Trypan Blue solution before being further diluted in Growth Medium and seeded at a density of 1×10^4 cells per well (in 100 μl) into clear bottomed 96 well plates (Packard, No. 6005182). […]
Immunostaining was performed at room temperature. […] Plates were analysed within six hours of completing the immunostaining.
The Fluorescence signal is each well was measured using an Acumen Explorer Instrument (Acumen Bioscience Ltd.), a plate reader that can be used to rapidly quantitate features of images generated by laser-scanning. […]

Row | SMILES | IC50 (EGFR tyrosine kinase) | IC50 (erbB2 tyrosine kinase) | IC50 (erbB2)
1 | O=C(CO)N1CCC[C@@H]1COc1cccc2ncnc(Nc3ccc4c(cnn4Cc4ccccn4)c3)c12 [Example 1, 2-Oxo-2-((2R)-2-{[(4-{[1-(pyridin-2-ylmethyl)-1H-indazol-5-yl]amino}quinazolin-5-yl)oxy]methyl}pyrrolidin-1-yl)ethanol] | 310 nM | 6 nM | 380 nM
2 | O=C(CO)N1CCCC[C@@H]1COc1cccc2ncnc(Nc3ccc4c(cnn4Cc4ccccn4)c3)c12 [Example 4, 2-Oxo-2-((2R)-2-{[(4-{[1-(pyridin-2-ylmethyl)-1H-indazol-5-yl]amino}quinazolin-5-yl)oxy]methyl}piperidin-1-yl)ethanol] | 61 nM | 5 nM | 44 nM
